Test results reported in patent US20070128217A1 (priority 2003, published 2007).

What was measured:
[1] = tested on: control sera (pooled serum of ten healthy LUMC hospital workers; commercial negative donor pooled serum from the Dutch bloodbank); format: binding, human
[2] = tested on: rabbit serum obtained by immunizing a rabbit with the SARS-CoV strain Frankfurt 1; format: binding; parameters: Binding of a rabbit serum to linear peptides / Binding of a rabbit serum to looped peptides / Rabbit serum linear peptides / Rabbit serum looped peptides / Binding of a rabbit serum to linear peptides of protein N of SARS-CoV Urbani (Rabbit serum linear peptides) / Binding of a rabbit serum to looped/cyclic peptides of protein N of SARS-CoV Urbani (Rabbit serum looped peptides): unit not given here
[3] = tested on: antibodies in sera from SARS patients (sera 1a, 1b, 2, 6, 37, 62, London, SARS-yellow, SARS-green); format: binding, human; parameters: Binding of serum 6 to linear peptides of protein X1 of SARS-CoV Urbani / Binding of serum 37 to linear peptides of protein X1 of SARS-CoV Urbani / Binding of serum 6 to looped/cyclic peptide (PEPSCAN-ELISA) / Binding of serum 37 to looped/cyclic peptide (PEPSCAN-ELISA) / Binding of serum 37 to looped/cyclic peptides of protein X1 of SARS-CoV Urbani / Binding of serum 6 to linear peptides of protein X2 / Binding of serum 37 to linear peptides of protein X2 / Binding of serum 37 to looped/cyclic peptides of protein X2 of SARS-CoV Urbani / Binding of serum 6 to linear peptides of protein M of SARS-CoV Urbani / Binding of serum 37 to linear peptides of protein M of SARS-CoV Urbani / Binding of serum 6 to looped/cyclic peptides of protein M of SARS-CoV Urbani / Binding of serum 37 to looped/cyclic peptides of protein M of SARS-CoV Urbani / Binding of serum 6 to linear peptides of protein X3 of SARS-CoV Urbani / Binding of serum 37 to linear peptides of protein X3 of SARS-CoV Urbani / Binding of serum 37 to looped/cyclic peptides of protein X3 of SARS-CoV Urbani / Binding of serum 6 to linear peptides of protein X4 of SARS-CoV Urbani / Binding of serum 37 to linear peptides of protein X4 of SARS-CoV Urbani / Binding of serum 37 to looped/cyclic peptides of protein X4 of SARS-CoV Urbani / Binding of serum 6 to linear peptides of protein X5 of SARS-CoV Urbani / Binding of serum 37 to linear peptides of protein X5 of SARS-CoV Urbani / Binding of serum 37 to looped/cyclic peptides of protein X5 of SARS-CoV Urbani / Binding of serum 6 to linear peptides of protein N of SARS-CoV Urbani / Binding of serum 37 to linear peptides of protein N of SARS-CoV Urbani / Binding of serum 6 to linear peptide (PEPSCAN-ELISA) / Binding of serum 1a to looped/cyclic peptides of protein N of SARS-CoV Urbani / Binding of serum 1b to looped/cyclic peptides of protein N of SARS-CoV Urbani / Binding of serum 2 to looped/cyclic peptides of protein N of SARS-CoV Urbani / Binding of serum 6 to looped/cyclic peptides of protein N of SARS-CoV Urbani / Binding of serum 37 to looped/cyclic peptides of protein N of SARS-CoV Urbani / Binding of serum 62 to looped/cyclic peptides of protein N of SARS-CoV Urbani / Binding of serum London to looped/cyclic peptides of protein N of SARS-CoV Urbani / Binding of serum SARS-green to looped/cyclic peptides of protein N of SARS-CoV Urbani: unit not given here

Row | Sequence | Binding of serum 1a to looped/cyclic peptide (PEPSCAN-ELISA) [3] | Binding of serum 1b to looped/cyclic peptide (PEPSCAN-ELISA) [3] | Binding of serum 2 to looped/cyclic peptide (PEPSCAN-ELISA) [3] | Binding of serum 6 to looped/cyclic peptide (PEPSCAN-ELISA) [3] | Binding of serum 37 to looped/cyclic peptide (PEPSCAN-ELISA) [3] | Binding of serum 62 to looped/cyclic peptide (PEPSCAN-ELISA) [3] | Binding of serum London to looped/cyclic peptide (PEPSCAN-ELISA) [3] | Binding of serum SARS-green to looped/cyclic peptide (PEPSCAN-ELISA) [3] | Binding of serum SARS-yellow to looped/cyclic peptide (PEPSCAN-ELISA) [3] | Binding of a rabbit serum to linear peptides [2] | Binding of a rabbit serum to looped peptides [2] | also measured
1 | SSIVRQLFKPLTKKN | – | – | – | – | – | – | – | – | – | – | – | Binding of Control Serum Blood-Bank to Looped peptides of the protein X3 of SARS-CoV Urbani [1]: 0.8; Binding of Control serum Blood-bank to linear peptides of the protein X3 of SARS-CoV Urbani [1]: 1.2; Binding of Control serum LUMC to linear peptides of the protein X3 of SARS-CoV Urbani [1]: 1.1; Binding of Control serum LUMC to looped peptides of the protein X3 of SARS-CoV Urbani [1]: 0.7; Rabbit serum linear peptides [2]: 0.4; Rabbit serum looped peptides [2]: 0.5
2 | ATKIIALNKRWQLAL | 0.6 | 0.4 | 0.5 | 0.5 | 0.6 | 0.7 | 0.3 | 0.3 | 0.6 | – | – | Recognition of the peptide by the rabbit serum [2]: recognized; Binding of serum 1a to linear peptides of protein X1 of SARS-CoV Urbani [3]: 0.7; Binding of serum 1b to linear peptides of protein X1 of SARS-CoV Urbani [3]: 0.6; Binding of serum 2 to linear peptides of protein X1 of SARS-CoV Urbani [3]: 0.6; Binding of serum 6 to linear peptides of protein X1 of SARS-CoV Urbani [3]: 0.7; Binding of serum 37 to linear peptides of protein X1 of SARS-CoV Urbani [3]: 0.8; Binding of serum 62 to linear peptides of protein X1 of SARS-CoV Urbani [3]: 0.8; Binding of serum London to linear peptides of protein X1 of SARS-CoV Urbani [3]: 0.4; Binding of serum SARS-green to linear peptides of protein X1 of SARS-CoV Urbani [3]: 0.3; Binding of serum SARS-yellow to linear peptides of protein X1 of SARS-CoV Urbani [3]: 0.7
3 | IALNKRWQLALYKGF | 0.5 | 0.4 | 0.5 | 0.4 | 0.5 | 0.7 | 0.3 | 0.4 | 0.6 | – | – | Recognition of the peptide by the rabbit serum [2]: recognized; Binding of serum 1a to linear peptides of protein X1 of SARS-CoV Urbani [3]: 0.8; Binding of serum 1b to linear peptides of protein X1 of SARS-CoV Urbani [3]: 0.7; Binding of serum 2 to linear peptides of protein X1 of SARS-CoV Urbani [3]: 0.6; Binding of serum 6 to linear peptides of protein X1 of SARS-CoV Urbani [3]: 0.9; Binding of serum 37 to linear peptides of protein X1 of SARS-CoV Urbani [3]: 0.7; Binding of serum 62 to linear peptides of protein X1 of SARS-CoV Urbani [3]: 0.7; Binding of serum London to linear peptides of protein X1 of SARS-CoV Urbani [3]: 0.3; Binding of serum SARS-green to linear peptides of protein X1 of SARS-CoV Urbani [3]: 0.4; Binding of serum SARS-yellow to linear peptides of protein X1 of SARS-CoV Urbani [3]: 0.5
4 | KIIALNKRWQLALYK | 0.7 | 0.5 | 0.7 | 0.8 | 0.8 | 0.7 | 0.3 | 0.3 | 0.5 | – | – | Recognition of the peptide by the rabbit serum [2]: recognized; Binding of serum 1a to linear peptides of protein X1 of SARS-CoV Urbani [3]: 0.8; Binding of serum 1b to linear peptides of protein X1 of SARS-CoV Urbani [3]: 0.7; Binding of serum 2 to linear peptides of protein X1 of SARS-CoV Urbani [3]: 0.7; Binding of serum 6 to linear peptides of protein X1 of SARS-CoV Urbani [3]: 1.0; Binding of serum 37 to linear peptides of protein X1 of SARS-CoV Urbani [3]: 0.8; Binding of serum 62 to linear peptides of protein X1 of SARS-CoV Urbani [3]: 0.8; Binding of serum London to linear peptides of protein X1 of SARS-CoV Urbani [3]: 0.4; Binding of serum SARS-green to linear peptides of protein X1 of SARS-CoV Urbani [3]: 0.4; Binding of serum SARS-yellow to linear peptides of protein X1 of SARS-CoV Urbani [3]: 0.5
5 | IARCWYLHEGHQTAA | – | – | – | – | – | – | – | – | – | – | – | Rabbit serum linear peptides [2]: 0.7; Rabbit serum looped peptides [2]: 0.3
6 | NASPASTVHATATIP | – | – | – | – | – | – | – | – | – | 0.6 | 0.3 | –
7 | RCWLCWKCKSKNPLL | 0.7 | 0.5 | 0.7 | 0.8 | 0.8 | 0.7 | 0.4 | 0.4 | 0.7 | 0.1 | 0.7 | Recognition of the peptide by sera of SARS-CoV infected individuals, and form (linear, looped/cyclic) in which it is recognized [3]: recognized in linear form
8 | LFAGTHITMTTVYHI | – | – | – | – | – | – | – | – | – | 0.6 | 0.5 | –
9 | IIRGHLRMAGHPLGR | – | – | – | – | – | – | – | – | – | – | – | Rabbit serum linear peptides [2]: 0.6; Rabbit serum looped peptides [2]: 2.0
10 | YEGNSPFHPLADNKF | – | – | – | – | – | – | – | – | – | – | – | Rabbit serum linear peptides [2]: 0.6; Rabbit serum looped peptides [2]: 0.5
11 | FQSATKIIALNKRWQ | 0.5 | 0.3 | 0.4 | 0.5 | 0.5 | 0.5 | 0.2 | 0.3 | 0.2 | – | – | Recognition of the peptide by the rabbit serum [2]: recognized; Binding of serum 1a to linear peptides of protein X1 of SARS-CoV Urbani [3]: 0.8; Binding of serum 1b to linear peptides of protein X1 of SARS-CoV Urbani [3]: 0.6; Binding of serum 2 to linear peptides of protein X1 of SARS-CoV Urbani [3]: 0.6; Binding of serum 6 to linear peptides of protein X1 of SARS-CoV Urbani [3]: 0.6; Binding of serum 37 to linear peptides of protein X1 of SARS-CoV Urbani [3]: 0.7; Binding of serum 62 to linear peptides of protein X1 of SARS-CoV Urbani [3]: 0.7; Binding of serum London to linear peptides of protein X1 of SARS-CoV Urbani [3]: 0.3; Binding of serum SARS-green to linear peptides of protein X1 of SARS-CoV Urbani [3]: 0.4; Binding of serum SARS-yellow to linear peptides of protein X1 of SARS-CoV Urbani [3]: 0.4
12 | TTLFAGTHITMTTVY | – | – | – | – | – | – | – | – | – | 0.6 | 0.3 | –
13 | NSPFHPLADNKFALT | – | – | – | – | – | – | – | – | – | – | – | Rabbit serum linear peptides [2]: 0.5; Rabbit serum looped peptides [2]: 0.7
14 | TLFAGTHITMTTVYH | – | – | – | – | – | – | – | – | – | 0.7 | 0.5 | –
15 | STVHATATIPLQASL | – | – | – | – | – | – | – | – | – | 0.6 | 0.5 | –
16 | IMRCWLCWKGKSKNP | – | – | – | – | – | – | – | – | – | 0.1 | 0.3 | –
17 | AVFQSATKIIALNKR | 0.4 | 0.4 | 0.6 | 0.7 | 0.6 | 0.6 | 0.9 | 0.2 | 0.4 | – | – | Recognition of the peptide by the rabbit serum [2]: recognized; Binding of serum 1a to linear peptides of protein X1 of SARS-CoV Urbani [3]: 0.8; Binding of serum 1b to linear peptides of protein X1 of SARS-CoV Urbani [3]: 0.6; Binding of serum 2 to linear peptides of protein X1 of SARS-CoV Urbani [3]: 0.6; Binding of serum 6 to linear peptides of protein X1 of SARS-CoV Urbani [3]: 0.8; Binding of serum 37 to linear peptides of protein X1 of SARS-CoV Urbani [3]: 0.7; Binding of serum 62 to linear peptides of protein X1 of SARS-CoV Urbani [3]: 0.6; Binding of serum London to linear peptides of protein X1 of SARS-CoV Urbani [3]: 0.3; Binding of serum SARS-green to linear peptides of protein X1 of SARS-CoV Urbani [3]: 0.3; Binding of serum SARS-yellow to linear peptides of protein X1 of SARS-CoV Urbani [3]: 0.5
18 | MPTTLFAGTHITMTT | – | – | – | – | – | – | – | – | – | 0.7 | 0.3 | –
